≈ marks a conversion by molar mass, not a printed value. Where two headings read alike, the source gives them in different places.
How the values were obtained:
[1] = Toxicity against mouse cells, alamarBlue assay, 24 hours; format: cell-based; settings: murine macrophages, read-out: Macrophage Toxicity CC50
Protocol: To assess toxicity, all compounds were evaluated against mouse cells for 24 hours by means of the alamarBlue assay. […] The higher the value of CC50, the greater the amount of compound required to damage mouse cells, therefore, the lower the toxicity of the compound.

[2] = tested on: Leishmania amazonensis promastigotes; experiment: Leishmanicidal activity, alamarBlue fluorescence, 72 hours incubation with promastigotes; format: cell-based; settings: for SI (CC50/IC50): ratio of macrophage CC50 to L. amazonensis IC50
[3] = Leishmania amazonensis, promastigotes, 72 hours, alamarBlue, read-out: L. amazonensis IC50

Row | SMILES | CC50 at 24 h [1] [µg/mL] | IC50 [2] [µg/mL] | IC50 ([2]; Leishmania amazonensis, read-out: IC50) [µg/mL] | SI (CC50/IC50) [2] | IC50 [2, 3] [µg/mL] | leishmanicidal activity ([2]; statement in words)
1 | CCCCCCCCCCCCCCCCOP(=O)([O-])OCC[N+](C)(C)C [Miltefosine, miltefosine, reference compound] | 29.4 ± 1.25 (≈ 72.2 µM) | 2.64 (≈ 6.48 µM) | 2.64 (≈ 6.48 µM) | 11.14 |  | 
2 | CC1=CC(=O)C=C(C2CCCC2)C1=O [SG-003, 2-cyclopentyl-6-methylcyclohexa-2,5-diene-1,4-dione] | 4.53 ± 0.9 (≈ 23.8 µM) |  |  | 13.30 | 0.34 ± 0.01 (≈ 1.79 µM) | 
3 | CC1=CC(=O)C(C2CCCC2)=CC1=O [SG-005, 2-cyclopentyl-5-methylcyclohexa-2,5-diene-1,4-dione] | 0.72 ± 0.01 (≈ 3.78 µM) |  |  | 5.50 | 0.13 ± 0.03 (≈ 0.683 µM) | 
4 | CC1=CC(=O)C=C(C2CCCCC2)C1=O [SG-007, 2-cyclohexyl-6-methylcyclohexa-2,5-diene-1,4-dione] | 0.52 ± 0.09 (≈ 2.55 µM) |  |  | 7.40 | 0.07 ± 0.02 (≈ 0.343 µM) | 
5 | CC1=CC(=O)C(C2CCCCC2)=CC1=O [SG-008, 2-cyclohexyl-5-methylcyclohexa-2,5-diene-1,4-dione] | 2.55 ± 0.2 (≈ 12.5 µM) |  |  | 42.50 | 0.06 ± 0.01 (≈ 0.294 µM) | 
6 | CCC(C)(C)C1=CC(=O)C(C)=CC1=O [SG-010, 2-methyl-5-(tert-pentyl)cyclohexa-2,5-diene-1,4-dione] | 4.51 ± 0.47 (≈ 23.5 µM) |  |  | 37.50 | 0.12 ± 0.02 (≈ 0.624 µM) | shows leishmanicidal activity
7 | CCC(C)(CC)C1=CC(=O)C(C)=CC1=O [SG-011, 2-methyl-5-(3-methylpentan-3-yl)cyclohexa-2,5-diene-1,4-dione] | 12.3 ± 0.77 (≈ 59.5 µM) |  |  | 13.80 | 0.89 ± 0.06 (≈ 4.31 µM) | 
8 | CC1=CC(=O)C(C23CC4CC(CC(C4)C2)C3)=CC1=O [SG-012, 2-((3r,5r,7r)-adamantane-1-yl)-5-methylcyclohexa-2,5-diene-1,4-dione] | 0.78 ± 0.02 (≈ 3.04 µM) |  |  | 9.75 | 0.08 ± 0.01 (≈ 0.312 µM) | 
9 | CC1=CC(=O)C(C2CCCCCC2)=CC1=O [SG-013, 2-cycloheptyl-5-methylcyclohexa-2,5-diene-1,4-dione] | 0.92 ± 0.05 (≈ 4.21 µM) |  |  | 7.10 | 0.09 (≈ 0.412 µM) | 
10 | CC1=CC(=O)C=C(C2CCCCCC2)C1=O [SG-014, 2-cycloheptyl-6-methylcyclohexa-2,5-diene-1,4-dione] | 8.95 ± 1.75 (≈ 41 µM) |  |  | 24.20 | 0.7 ± 0.02 (≈ 3.21 µM) | 

Reference: US20260022089A1, “QUINONE-DERIVED COMPOUNDS AND USE THEREOF AGAINST LEISHMANIA SPP” (Universidad de la Laguna, priority 2022, published 2026)
